Data reported in ChEMBL document CHEMBL3045938, “Methionine-induced phytoalexin production in rice leaves” (2000).
Activity calls are given as the source filed them. The calls are words filed in the database; no cut-off is given here.

What was measured:
Format in all cases: functional, organism-based
[1] = test system: Oryza sativa; assay: Induction of disease resistance in Oryza sativa Nipponbare (rice) assessed as increase in sakuranetin level in press-injured leaves at 0.1% after 48 hr by HPLC-MS-MS analysis
[2] = test system: Oryza sativa; assay: Induction of disease resistance in Oryza sativa Nipponbare (rice) assessed as increase in momilactone level in press-injured leaves at 10 mM after 48 hr by HPLC-MS-MS analysis
[3] = test system: Oryza sativa; assay: Induction of disease resistance in Oryza sativa Nipponbare (rice) assessed as increase in sakuranetin level in press-injured leaves at 10 mM after 48 hr by HPLC-MS-MS analysis
[4] = test system: Oryza sativa; assay: Induction of disease resistance in Oryza sativa Nipponbare (rice) assessed as increase in momilactone level in uninjured leaves at 0.5 mM pretreated with water 24 hr prior to compound treatment measured after 8 to 10 hr by HPLC-MS-MS analysis relative to control
[5] = test system: Oryza sativa; assay: Induction of disease resistance in Oryza sativa Nipponbare (rice) assessed as increase in sakuranetin level in press-injured leaves at 0.5 mM pretreated with water 24 hr prior to compound treatment measured after 8 to 10 hr by HPLC-MS-MS analysis relative to control
[6] = test system: Oryza sativa; assay: Induction of disease resistance in Oryza sativa Nipponbare (rice) assessed as increase in jasmonic acid level in press-injured leaves at 0.5 mM after 1 to 2 hr by HPLC-MS-MS analysis relative to control
[7] = test system: Oryza sativa; assay: Induction of disease resistance in Oryza sativa Nipponbare (rice) assessed as increase in sakuranetin level in uninjured leaves at 0.5 mM pretreated with water 24 hr prior to compound treatment measured after 8 to 10 hr by HPLC-MS-MS analysis relative to control
[8] = test system: Oryza sativa; assay: Induction of disease resistance in Oryza sativa Nipponbare (rice) assessed as increase in momilactone level in press-injured leaves at 0.5 mM pretreated with water 24 hr prior to compound treatment measured after 8 to 10 hr by HPLC-MS-MS analysis relative to control
[9] = test system: Oryza sativa; assay: Induction of disease resistance in Oryza sativa Nipponbare (rice) assessed as increase in jasmonic acid level in press-injured leaves at 0.5 mM pretreated with water 24 hr prior to compound treatment measured after 6 hr by HPLC-MS-MS analysis relative to control

C[S+](CC[C@H](N)C(=O)[O-])C[C@H]1O[C@@H](n2cnc3c(N)ncnc32)[C@H](O)[C@@H]1O (stereo not given in full)
Activity [1]: inactive

N[C@@H](Cc1ccccc1)C(=O)O
Activity [1]: inactive

O=P(O)(O)CCCl
Activity [2]: inactive
Activity [3]: Active

CUPRIC CHLORIDE
Activity [4]: inactive
Activity [5]: Active
Activity [6]: inactive
Activity [7]: inactive
Activity [8]: Active
Activity [9]: Active
